These results are taken from US12264156B2, “Compounds and pharmaceutical compositions thereof for the treatment of diseases” (GALAPAGOS NV, priority 2018, dated 2025).

The subject of assay [1] is LPS triggered IL-10 secretion in monocyte-derived macrophages (MdM). As to the kind of experiment: MdM assay: LPS-triggered IL-10 (ELISA). The assay is classed as cell-based, human. To be noted: LPS 200 ng/mL, supernatant after 2 h, maximal fold change vs LPS only. As for the experimental part:
SIK inhibition inhibits TNFα and increases IL-10 release in LPS triggered monocyte-derived macrophages (MdM) and dendritic […] al. 2012; Sundberg et al. 2014; Ozanne et al. 2015). This assay evaluates illustrative compounds of the invention for their inhibition of LPS-induced TNFα and LPS triggered IL-10 secretion in monocyte-derived macrophages. PBMCs are isolated from human blood samples (buffycoats). The buffy coat is aseptically transferred into a 50 mL Falcon tube, and diluted 1/2 in PBS. Falcon tubes are filled with 20 mL LymphoprepTM, on top of which 25 mL of the buffy coat is carefully added, tubes are centrifuged for 35 min at 400 g in temperature controlled centrifuge, without brake, at 25° C. PBMCs are aspirated from the white interface layer between sample and LymphoprepTM. PBMCs are washed five times in PBS. Cells are resuspended in RPMI 1640 complete medium supplemented with 10% FBS, 1% P/S, and cell density is determined using a hematologic analyzer (Sysmex XS-500i). PBMCs are centrifuged at 300×g for 10 min and resuspended at a density of 1.0*10^7 cells/80 μL Miltenyi buffer (PBS, pH 7.4, 1% FBS, 2 mM EDTA). Starting from this point of the protocol all steps are performed on ice. 20 μL of CD14+ micro-beads are added per 1.0*10^7 cells, the tube is mixed and incubated for 15 min in the fridge at 4° C. Cell suspension volume is adjusted to total volume of 100 mL using Miltenyi buffer, mixed gently and subsequently centrifuged for 10 min at 300×g. Supernantant is discarded and cell pellet is resuspended in 12 mL of Miltenyi buffer. Four LS columns are placed in the MACS Separator (magnet) from Miltenyi Biotec, and are prewet by rinsing with 3 mL of MACS buffer per column. Three mL of cell suspension is added onto the column (max 1*10^8 of labelled cells/column), and columns are subsequently washed 3 times with 3 mL of Miltenyi buffer. The columns are removed from the magnets, and 5 mL of Miltenyi buffer are added to the column to flush out the CD14+ fraction by pushing the plunger into the column. The flushed fractions are collected in a fresh 50 mL Falcon and volume is adjusted to 30 mL using Miltenyi buffer, cells are centrifuged for 10 min at 300×g. The obtained cell pellet is resuspended in 10 mL RPMI w/o FBS, and cell density is determined using a hematologic analyser (Sysmex XS-500i). 100 000 cells are seeded per well of a 96-well plate for differentiation to MdM in RPMI 1640 medium supplemented with 10% FBS, 1% P/S and 100 ng/mL rhM-CSF. On day 5 the medium is refreshed with 100 μL RPMI 1640 medium supplemented with 10% FBS, 1% P/S and 100 ng/mL rhM-CSF. On day 10, MdMs are triggered and compound is added. A compound dilution plate is made in 100% DMSO by 3-fold dilution of 10 mM stock solution. An intermediate dilution plate (10× final concentration) is made by diluting the compound dilution plate 50-fold in RPMI medium. Medium is carefully removed from cell plates using multichannel pipette, and replaced by 80 μL fresh medium. 10 μL of the 10× final concentration compound is added to the cells and incubated for 1 hour at 37° C. before addition of trigger. No trigger conditions/trigger conditions are spiked with equal final DMSO concentrations of 0.2% DMSO. 10 μL of 10×LPS (final conc. 200 ng/mL) solution are added to all wells except for the 'no trigger wells' where 10 μL medium is added. Supernatant is collected after 2 h (IL-10 determination) and after 20 h (TNFα determination) of LPS triggering. […]
On the technique in general: In an ELISA, binding on a coated surface is turned into a signal by an enzyme label.

Another assay concerns the target T1, SIK2 (Homo sapiens, UniProt Q9H0K1).
T1 construct: purchased ThermoFisher Scientific PV4792
Description: ADP-Glo kinase assay, SIK2. Format: biochemical. Particulars: ADP-Glo SIK kinase assay. The essentials:
(§1)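 ADP-Glo, RT throughout. Enz/substrate + ATP, 120 min; ADP-Glo reagent 40 min (ATP depletion); detection reagent 30 min; luminescence read. Neg ctrl 1% DMSO, pos ctrl 10 μM staurosporine, final concs.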
Background: In ADP-Glo the light output rises with the ADP produced.

In the next assay the target is T2, SIK3 (Homo sapiens, UniProt Q9Y2K2).
T2 construct: purchased SignalChem S12-11G-100
Description: ADP-Glo kinase assay, SIK3. Format: biochemical. Particulars: ADP-Glo SIK kinase assay. The essentials: as §1

In another assay the target is T3, SIK1 (Homo sapiens, UniProt P57059).
T3 construct: purchased Carna Biosciences 02-131
As to the kind of experiment: ADP-Glo kinase assay, SIK1. Format: biochemical. To be noted: ADP-Glo SIK kinase assay. The essentials:
as §1

T3 sequence (P57059 whole entry): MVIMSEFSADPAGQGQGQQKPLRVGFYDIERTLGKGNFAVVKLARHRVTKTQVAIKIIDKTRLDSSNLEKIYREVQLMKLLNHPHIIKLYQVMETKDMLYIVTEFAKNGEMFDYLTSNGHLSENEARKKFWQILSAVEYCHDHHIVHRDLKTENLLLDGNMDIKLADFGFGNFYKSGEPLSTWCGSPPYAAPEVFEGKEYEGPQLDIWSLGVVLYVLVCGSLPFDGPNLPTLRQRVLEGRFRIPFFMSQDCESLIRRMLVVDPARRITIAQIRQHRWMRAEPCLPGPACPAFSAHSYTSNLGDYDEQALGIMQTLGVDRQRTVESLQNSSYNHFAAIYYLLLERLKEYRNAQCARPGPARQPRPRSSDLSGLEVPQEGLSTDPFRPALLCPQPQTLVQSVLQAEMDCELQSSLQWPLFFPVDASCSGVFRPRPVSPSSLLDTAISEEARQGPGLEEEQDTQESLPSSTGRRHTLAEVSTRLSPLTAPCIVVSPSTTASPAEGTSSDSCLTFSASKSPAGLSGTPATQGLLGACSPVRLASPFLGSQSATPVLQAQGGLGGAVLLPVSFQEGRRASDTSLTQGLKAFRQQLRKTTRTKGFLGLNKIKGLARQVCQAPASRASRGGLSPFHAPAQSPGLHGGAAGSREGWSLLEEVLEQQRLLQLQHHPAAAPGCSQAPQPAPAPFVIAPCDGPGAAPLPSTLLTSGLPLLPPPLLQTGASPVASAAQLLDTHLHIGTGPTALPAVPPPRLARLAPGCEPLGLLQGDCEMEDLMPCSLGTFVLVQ
T1 sequence (Q9H0K1 whole entry): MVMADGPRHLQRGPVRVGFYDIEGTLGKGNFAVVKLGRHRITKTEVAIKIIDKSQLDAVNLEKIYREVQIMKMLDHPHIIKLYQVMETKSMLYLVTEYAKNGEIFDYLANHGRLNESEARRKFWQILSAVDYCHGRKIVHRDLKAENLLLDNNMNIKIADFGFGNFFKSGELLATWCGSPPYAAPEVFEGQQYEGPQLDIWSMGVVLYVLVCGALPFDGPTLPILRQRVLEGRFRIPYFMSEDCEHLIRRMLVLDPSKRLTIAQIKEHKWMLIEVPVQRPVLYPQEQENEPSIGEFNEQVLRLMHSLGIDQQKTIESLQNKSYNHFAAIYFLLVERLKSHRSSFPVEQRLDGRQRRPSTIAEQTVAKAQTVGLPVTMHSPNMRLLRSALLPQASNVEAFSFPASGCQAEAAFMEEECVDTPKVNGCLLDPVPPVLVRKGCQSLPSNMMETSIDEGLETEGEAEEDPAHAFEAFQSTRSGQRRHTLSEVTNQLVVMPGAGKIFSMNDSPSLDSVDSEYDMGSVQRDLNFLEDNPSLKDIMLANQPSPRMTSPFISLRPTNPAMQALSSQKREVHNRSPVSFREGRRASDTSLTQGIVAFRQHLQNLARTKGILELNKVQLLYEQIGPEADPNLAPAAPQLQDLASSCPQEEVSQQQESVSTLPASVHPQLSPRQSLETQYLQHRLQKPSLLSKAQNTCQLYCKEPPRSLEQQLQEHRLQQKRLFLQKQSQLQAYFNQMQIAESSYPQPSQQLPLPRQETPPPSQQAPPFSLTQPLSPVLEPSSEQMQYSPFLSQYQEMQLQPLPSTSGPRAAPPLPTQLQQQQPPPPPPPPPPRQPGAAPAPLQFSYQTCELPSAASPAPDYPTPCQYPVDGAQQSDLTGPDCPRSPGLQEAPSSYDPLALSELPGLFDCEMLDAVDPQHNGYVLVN
T2 sequence (Q9Y2K2 whole entry): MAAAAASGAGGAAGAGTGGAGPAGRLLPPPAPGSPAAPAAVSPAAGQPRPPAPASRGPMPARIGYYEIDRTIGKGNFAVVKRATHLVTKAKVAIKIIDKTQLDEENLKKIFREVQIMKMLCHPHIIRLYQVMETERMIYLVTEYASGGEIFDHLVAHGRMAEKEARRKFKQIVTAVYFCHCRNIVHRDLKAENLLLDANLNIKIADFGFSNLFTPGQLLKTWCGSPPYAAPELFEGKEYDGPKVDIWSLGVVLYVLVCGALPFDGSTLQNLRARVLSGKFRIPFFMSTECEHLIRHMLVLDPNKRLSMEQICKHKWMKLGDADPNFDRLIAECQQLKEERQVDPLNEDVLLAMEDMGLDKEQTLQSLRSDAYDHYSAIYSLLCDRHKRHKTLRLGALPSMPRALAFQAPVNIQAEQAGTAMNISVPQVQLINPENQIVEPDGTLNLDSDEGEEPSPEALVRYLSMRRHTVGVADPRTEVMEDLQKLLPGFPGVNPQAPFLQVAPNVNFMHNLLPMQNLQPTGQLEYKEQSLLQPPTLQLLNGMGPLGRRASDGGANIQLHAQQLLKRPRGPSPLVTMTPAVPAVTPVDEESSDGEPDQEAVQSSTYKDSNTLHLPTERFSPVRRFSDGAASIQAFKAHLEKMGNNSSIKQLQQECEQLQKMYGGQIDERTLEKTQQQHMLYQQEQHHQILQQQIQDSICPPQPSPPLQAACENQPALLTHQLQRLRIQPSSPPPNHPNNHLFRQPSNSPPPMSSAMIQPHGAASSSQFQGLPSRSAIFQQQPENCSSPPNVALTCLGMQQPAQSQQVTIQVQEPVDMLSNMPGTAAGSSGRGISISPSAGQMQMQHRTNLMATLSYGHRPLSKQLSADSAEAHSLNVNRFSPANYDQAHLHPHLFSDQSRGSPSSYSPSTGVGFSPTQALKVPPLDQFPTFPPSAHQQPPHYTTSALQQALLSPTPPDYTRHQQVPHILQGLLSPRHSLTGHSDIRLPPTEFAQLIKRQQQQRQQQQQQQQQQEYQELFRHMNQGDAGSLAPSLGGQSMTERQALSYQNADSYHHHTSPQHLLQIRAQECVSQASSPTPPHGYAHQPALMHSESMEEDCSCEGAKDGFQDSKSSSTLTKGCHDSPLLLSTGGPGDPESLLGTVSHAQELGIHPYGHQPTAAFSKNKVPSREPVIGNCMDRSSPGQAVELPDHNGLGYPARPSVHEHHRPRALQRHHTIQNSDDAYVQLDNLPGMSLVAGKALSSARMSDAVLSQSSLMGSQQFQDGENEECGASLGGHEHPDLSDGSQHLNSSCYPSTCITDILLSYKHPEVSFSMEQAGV

On to `COc1cc(-c2cnc3cc(OCCN(C)C)ccn23)cc(OC(F)F)c1C(=O)NC1CC1` [Cpd 6, N-cyclopropyl-2-(difluoromethoxy)-4-[7-[2-(dimethylamino)ethoxy]imidazo[1,2-a]pyridin-3-yl]-6-methoxy-benzamide], for which the “IL-10 FCmax median” value in assay [1] is on record as “++ (>1.5-4.5)”. For the same compound, the IC50 (as a rule, the concentration at which inhibition is half-maximal) at SIK2 lay within 0.01 to 10 nM; on SIK3, 0.01 to 10 nM; on SIK1, 100 to 500 nM.
Take `COc1cc(-c2cnc3cc(OCCCN(C)C)ccn23)cc(OC(F)F)c1C(=O)NC1CC1` [Cpd 13]: the “IL-10 FCmax median” value in assay [1] was “++ (>1.5-4.5)”. Also, the figures for the IC50 against SIK2, at SIK3 and against SIK1 were 0.01 to 10 nM, 0.01 to 10 nM and 10 to 100 nM, respectively.
Take `COc1cc(-c2cnc3cc(OCC4CN(C)C4)ccn23)cc(OC(F)F)c1C(=O)NC1CC1` [Cpd 14, N-cyclopropyl-2-(difluoromethoxy)-6-methoxy-4-[7-[(1-methylazetidin-3-yl)methoxy]imidazo[1,2-a]pyridin-3-yl]benzamide]: in assay [1], the “IL-10 FCmax median” value was “++ (>1.5-4.5)”. For the same compound, the values for the IC50 against SIK2, against SIK3 and at SIK1 were 0.01 to 10 nM, 0.01 to 10 nM and 10 to 100 nM, respectively.
As for `COc1cc(-c2cnc3cc(OCCN(C)C)ccn23)cc2c1C(=O)N(CC(F)(F)F)CC2` [Cpd 18, 6-[7-[2-(dimethylamino)ethoxy]imidazo[1,2-a]pyridin-3-yl]-8-methoxy-2-(2,2,2-trifluoroethyl)-3,4-dihydroisoquinolin-1-one], in assay [1], the “IL-10 FCmax median” value is listed as “++ (>1.5-4.5)”. The half-maximal inhibitory concentration (IC50) against SIK2 was 0.01 to 10 nM; at SIK3 it was 10 to 100 nM; on SIK1, over 500 nM.
Turning to `COc1cc(-c2cnc3cc(OC[C@H]4COCCO4)ccn23)cc2c1C(=O)N(CC(F)(F)F)CC2` [Cpd 86, 6-[7-[[(2R)-1,4-dioxan-2-yl]methoxy]imidazo[1,2-a]pyridin-3-yl]-8-methoxy-2-(2,2,2-trifluoroethyl)-3,4-dihydroisoquinolin-1-one], the “IL-10 FCmax median” value in assay [1] is given as “++ (>1.5-4.5)”. Further, the values for the concentration for half-maximal inhibition (IC50) on SIK2, against SIK3 and against SIK1 were 10 to 100 nM, 0.01 to 10 nM and 100 to 500 nM, respectively.
Take `COc1cc(-c2cnc3cc(OCCN4CCOCC4)ccn23)cc2c1C(=O)N(CC(F)(F)F)CC2` [Cpd 88, 8-methoxy-6-[7-(2-morpholinoethoxy)imidazo [1,2-a]pyridin-3-yl]-2-(2,2,2-trifluoroethyl)-3,4-dihydroisoquinolin-1-one]: in assay [1], the “IL-10 FCmax median” value was “++ (>1.5-4.5)”.
`COc1cc(-c2cnc3cc(OCCC4CCCN4C)ccn23)cc2c1C(=O)N(CC(F)(F)F)CC2` (stereo not shown) [Cpd 122, 8-methoxy-6-[7-[2-(1-methylpyrrolidin-2-yl)ethoxy]imidazo[1,2-a]pyridin-3-yl]-2-(2,2,2-trifluoroethyl)-3,4-dihydroisoquinolin-1-one]: the “IL-10 FCmax median” value in assay [1] is “++ (>1.5-4.5)”. Besides, the IC50 at SIK2 was in the range of 0.01 to 10 nM; at SIK3, 0.01 to 10 nM; on SIK1, 100 to 500 nM.
Turning to `CN(C)CCOc1ccn2c(-c3cc4c(c(OC(F)F)c3)C(=O)N(CC(F)F)CC4)cnc2c1` [Cpd 150, 2-(2,2-difluoroethyl)-8-(difluoromethoxy)-6-[7-[2-(dimethylamino)ethoxy]imidazo[1,2-a]pyridin-3-yl]-3,4-dihydroisoquinolin-1-one], in assay [1], the “IL-10 FCmax median” value is “++ (>1.5-4.5)”. Besides, the results for the IC50 against SIK2, against SIK3 and at SIK1 were 0.01 to 10 nM, 0.01 to 10 nM and 100 to 500 nM, respectively.
With `CNc1cc(-c2cnc3cc(OCCN(C)C)ccn23)cc(OC(F)F)c1C(=O)NCC(F)(F)F` [Cpd 165, 2-(difluoromethoxy)-4-[7-[2-(dimethylamino)ethoxy]imidazo[1,2-a]pyridin-3-yl]-6-(methylamino)-N-(2,2,2-trifluoroethyl)benzamide], the “IL-10 FCmax median” value in assay [1] is recorded as “++ (>1.5-4.5)”. The figures for the IC50 against SIK2, against SIK3 and at SIK1 were 0.01 to 10 nM, 0.01 to 10 nM and 100 to 500 nM, respectively.
On to `COc1cc(-c2cnc3cc(OCCN4CCOC[C@@H]4C)ccn23)cc2c1C(=O)N(CC(F)(F)F)CC2` [Cpd 257, 8-methoxy-6-[7-[2-[(3S)-3-methylmorpholin-4-yl]ethoxy]imidazo[1,2-a]pyridin-3-yl]-2-(2,2,2-trifluoroethyl)-3,4-dihydroisoquinolin-1-one], for which, in assay [1], the “IL-10 FCmax median” value is recorded as “++ (>1.5-4.5)”. Besides, the IC50 on SIK2 fell in the range of 10 to 100 nM; against SIK3, 0.01 to 10 nM; against SIK1 it was 100 to 500 nM.
As for `COc1cc(-c2cnc3cc(OCCCN4CC(O)C4)ccn23)cc(OC(F)F)c1C(=O)NC1CC1` [Cpd 286, N-cyclopropyl-2-(difluoromethoxy)-4-[7-[3-(3-hydroxyazetidin-1-yl)propoxy]imidazo[1,2-a]pyridin-3-yl]-6-methoxy-benzamide], the “IL-10 FCmax median” value in assay [1] is “++ (>1.5-4.5)”. Also, the IC50 was in the range of 0.01 to 10 nM at SIK2, 0.01 to 10 nM against SIK3 and 10 to 100 nM at SIK1.
For the compound `COc1cc(-c2cnc3cc(OCC(O)CN4CCCCC4)ccn23)cc(OC(F)F)c1C(=O)NC1CC1` (stereo not shown) [Cpd 321, N-cyclopropyl-2-(difluoromethoxy)-4-[7-[2-hydroxy-3-(1-piperidyl)propoxy]imidazo [1,2-a]pyridin-3-yl]-6-methoxy-benzamide], the “IL-10 FCmax median” value in assay [1] is on record as “++ (>1.5-4.5)”. For the same compound, the IC50 at SIK2 fell in the range of 0.01 to 10 nM; at SIK3 it was 0.01 to 10 nM; on SIK1, 10 to 100 nM.
For `COc1cc(-c2cnc3cc(OCC(O)CN4CCOCC4)ccn23)cc(OC(F)F)c1C(=O)NC1CC1` (stereo not shown) [Cpd 330, N-cyclopropyl-2-(difluoromethoxy)-4-[7-(2-hydroxy-3-morpholino-propoxy)imidazo[1,2-a]pyridin-3-yl]-6-methoxy-benzamide], the “IL-10 FCmax median” value in assay [1] is recorded as “++ (>1.5-4.5)”. Moreover, the IC50 against SIK2 is 0.01 to 10 nM; on SIK3, 0.01 to 10 nM; on SIK1 it was 10 to 100 nM.
Turning to `COc1cc(-c2cnc3cc(OCCN4CCCCC4)ccn23)cc(OC(F)F)c1C(=O)NC1CC1` [compound 10, N-cyclopropyl-2-(difluoromethoxy)-6-methoxy-4-[7-[2-(1-piperidyl)ethoxy]imidazo [1,2-a]pyridin-3-yl]benzamide], the “IL-10 FCmax median” value in assay [1] is reported as “++ (>1.5-4.5)”. For the same compound, the values for the IC50 against SIK2, against SIK3 and against SIK1 were 0.01 to 10 nM, 0.01 to 10 nM and 10 to 100 nM, respectively.
Regarding `COc1cc(-c2cnc3cc(OCCC4CCCN4C)ccn23)cc(OC(F)F)c1C(=O)NC1CC1` (stereo not shown) [compound 17, N-cyclopropyl-2-(difluoromethoxy)-6-methoxy-4-[7-[2-(1-methylpyrrolidin-2-yl)ethoxy]imidazo[1,2-a]pyridin-3-yl]benzamide], the “IL-10 FCmax median” value in assay [1] was “++ (>1.5-4.5)”. Moreover, the IC50 at SIK2 lay in the range of 0.01 to 10 nM; at SIK3, 0.01 to 10 nM; on SIK1, 10 to 100 nM.
As to `COc1cc(-c2cnc3cc(OCC4CCCCN4C)ccn23)cc(OC(F)F)c1C(=O)NC1CC1` (stereo not shown) [compound 23, N-cyclopropyl-2-(difluoromethoxy)-6-methoxy-4-[7-[(1-methyl-2-piperidyl)methoxy]imidazo[1,2-a]pyridin-3-yl]benzamide], in assay [1], the “IL-10 FCmax median” value is “++ (>1.5-4.5)”. Also, the IC50 lay in the range of 0.01 to 10 nM at SIK2, 0.01 to 10 nM at SIK3 and 100 to 500 nM against SIK1.
